# Experiments:
# Format in all cases: cell-based, human
# POMC [1] = experiment: POMC mRNA expression by quantitative RT-PCR in melanocytes put in contact with actives; settings: mRNA relative to actin, multiple of untreated control, 24 hours, same conditions as Example 3
# Method: The active components are tested for keratinocytes after dissolution in the culturing environment: usually between 0.1% and 2% (v/v) for plants and biotechnological hydrolysates and in particular from 0.5% to 1% and usually between 0.001% and 0.01% for characterized molecules. The present results are obtained with 1% in the culturing environment for plant extracts and biotechnological hydrolysates, and with 0.01% for characterized molecules.
# After the contact time of the actives with the cells, for example 24 hours, the environments are eliminated and the cells conserved, for example by freeze-drying at −80° C. after a rinsing with 7.4 pH phosphate solution. The total RNA is extracted, for example, using a 96-well extraction kit on silica columns and divided onto a 96-well spectrophotometer at 260 nm (purity indicator: dosage of proteins at 280 nm). The RNA is diluted, for example at 5 ng/μl. […]
# (§1) The parameters of amplification have usually been the following: The technique of RT-PCR in real time is conducted with the “Quanti Ted SYBR Green RT-PCR” kit (Qiagen, France) on wells containing mRNA, in an OPTICON thermocycler, which carries out cycles of amplification. […] At the end of each cycle, fluorescence, which is proportional to the number of fragments amplified, is read. […]
# MC-1R [2] = experiment: MC-1R mRNA expression by quantitative RT-PCR in melanocytes put in contact with actives; settings: mRNA relative to actin, multiple of untreated control, 24 hours, same conditions as Example 3
# μ opioid R [3] = experiment: μ opioid R mRNA expression by quantitative RT-PCR in melanocytes put in contact with actives; settings: mRNA relative to actin, multiple of untreated control, 24 hours, same conditions as Example 3
# POMC [4] = experiment: POMC mRNA expression by quantitative RT-PCR in keratinocytes put in contact with actives; settings: mRNA relative to actin, multiple of untreated control, 24 hours, 1% plant extracts and biotechnological hydrolysates, 0.01% characterized molecules
# From the text: (§2) In particular, the extracts are obtained by macerating plants (preferably roots, rhizomes, stems, bark, flowers, fruits, seeds, germs, or leaves) at 1-10% (p/p), usually 1-5% in a solvent or a mixture of solvents, usually a mixture of water and alcohol, glycol, or polyol (such as ethanol, glycerol, butylene glycol and other glycols, xylitol, etc.) 100/0 to 0/100, and preferably in water. The extracts obtained are then filtered or distilled in order to recover the soluble portion, which is then filtered, preferably at 0.45 μm. Biotechnological hydrolysates are obtained via the fermentation of plant extracts in the presence of microorganisms usually from the family of lactic bacteria, in particular bactobacillus plantarum, or paracasei, and bifidobacterium, in particular longum or Saccharomyces. These hydrolysates are then filtered, preferably to 0.45 μm, in order to obtain the active components. […]
# as §1
# MC-2R [5] = experiment: MC-2R mRNA expression by quantitative RT-PCR in keratinocytes put in contact with actives; settings: mRNA relative to actin, multiple of untreated control, 24 hours, 1% plant extracts and biotechnological hydrolysates, 0.01% characterized molecules
# From the text: as §2, §1
# MC-2R [6] = experiment: Detection of MC-2R protein in keratinocytes after action of active components (electrophoresis, immunodetection, image analysis); settings: semi-quantification via image analysis, multiple of control
# Method: (§3) The cells were cultivated at 37° C. in an atmosphere of 5% CO2 in the K-SFM environment K-SFM (Invitrogen) containing BPF (25 mg), EGF (2.5 μg), and normocin.
# (§4) The cells were washed once with PBS solution, and the proteins were extracted at 30 min at 4° C. in lysis solution (Tris 50 mM, NaCl 250 mM, pH 7.5, 1% triton), in the presence of protease inhibitors. The lysates were centrifuged for 15 minutes at 13,000 g. The floaters are diluted with Laemmli solution in the presence of beta mercaptoethanol before electrophoresis.
# (§5) For immunodetection, the proteins are separated via electrophoresis in 4-12% SDS-polyacrylamide gel. The proteins were transferred onto a nitrocellulose membrane (Biorad). The membranes are then saturated for one hour at ambient temperature in TBS solution with 3% BSA. The proteins are finally immunodetected after incubation of the primary antibody at 4° C. all night, followed by the secondary antibody coupled with Alexa 488 (invitrogen), 1 hour at ambient temperature.
# (§6) The antibodies were used in the following dilution: 5 μg/mL anti-MC-1R, 5 μg/mL anti-MC-2R, and 1/1000 anti-μ opioid R.
# (§7) Semi-quantification was carried out via image analysis. The actives are the following and are the subject of table IV.
# μ opioid R [7] = experiment: μ opioid R mRNA expression by quantitative RT-PCR in keratinocytes put in contact with actives; settings: mRNA relative to actin, multiple of untreated control, 24 hours, 1% plant extracts and biotechnological hydrolysates, 0.01% characterized molecules
# From the text: as §2, §1
# μ opioid receptor = experiment: Detection of μ opioid receptor protein in keratinocytes after action of active components (electrophoresis, immunodetection, image analysis); settings: semi-quantification via image analysis, multiple of control
# Method: as §3, §4, §5, §6, §7
# MC-1R [8] = experiment: MC-1R mRNA expression by quantitative RT-PCR in keratinocytes put in contact with actives; settings: mRNA relative to actin, multiple of untreated control, 24 hours, 1% plant extracts and biotechnological hydrolysates, 0.01% characterized molecules
# From the text: as §2, §1
Compound,POMC Control X: (POMC [1]) [Control X],MC-1R Control X: (MC-1R [2]) [Control X],μ opioid R Control X: (μ opioid R [3]) [Control X],POMC Control X: (POMC [4]) [Control X],MC-2R Control X: (MC-2R [5]) [Control X],MC-2R Control X: (MC-2R [6]) [Control X],μ opioid R Control X: (μ opioid R [7]) [Control X],μ opioid R Control X: (μ opioid receptor) [Control X],MC-1R Control X: (MC-1R [8]) [Control X]
Cc1nc(C(=O)O)cc2c1[nH]c1ccccc12 [1 methyl beta carbolin-3-carboxylic acid],3.3,1.0,1.0,–,–,–,–,–,–
"C/C=C(/C)C(=O)OC1CC2(C)CCC(C(C)C)C2(O)CCC1(C)O (stereo not drawn) [(Z)-decahydro-6,8a-dihydroxy-1-isopropyl-3a,6-dimethylazulen-5-yl 2-methylbut-2-enoate]",–,–,–,1,18.5,1.99,1.0,1.37,1.0
"CC1=CC(=O)C2=C(C)CC(OC(=O)Cc3ccccc3)C3C(C)C(=O)OC3C12 (stereo not drawn) [Phenyl-acetic acid 3,6,9-trimethyl-2,7-dioxo-2,3,3a,4,5,7,9a,9b-octahydro-azuleno[4,5-b]furan-4-yl]",–,–,–,1,20.0,1.96,1.0,1.66,20.0
